In US20210139484A1, “DIHYDROISOQUINOLINE-2(1H)-CARBOXAMIDE AND RELATED COMPOUNDS AND THEIR USE IN TREATING MEDICAL CONDITIONS” (GOSSAMER BIO SERVICES, INC., priority 2018, published 2021):

Molecular target: T1, human HPK1 protein (Homo sapiens, UniProt Q92918)
T1 construct: recombinant human HPK1 protein (a.a. 1-346) was expressed in Sf9 insect cells; GST (N); purchased Signalchem M23-11G; host or cells: Sf9 insect cells (baculovirus)
T1 sequence (Q92918 1-346): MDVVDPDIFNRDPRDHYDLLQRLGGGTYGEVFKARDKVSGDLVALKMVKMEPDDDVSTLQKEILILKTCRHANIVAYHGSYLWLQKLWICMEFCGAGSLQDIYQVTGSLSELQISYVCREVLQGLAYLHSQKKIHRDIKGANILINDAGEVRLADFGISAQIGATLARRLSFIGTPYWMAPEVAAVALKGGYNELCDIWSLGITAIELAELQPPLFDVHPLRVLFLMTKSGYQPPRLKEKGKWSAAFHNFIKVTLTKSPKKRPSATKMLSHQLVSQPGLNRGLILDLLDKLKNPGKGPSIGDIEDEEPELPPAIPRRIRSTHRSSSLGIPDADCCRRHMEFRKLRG
Assay: Human HPK1 protein TR-FRET assay
Type: biochemical
Conditions: 1 mM ATP
Method in brief: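 GST-tagged HPK1 (a.a. 1-346, Sf9-expressed) at 10 nM phosphorylated 100 nM ULight CREBtide with 1 mM ATP in Tris pH 7.5, MgCl2, NP-40, DTT, 1% DMSO, 60 minutes at room temperature. Phospho-Ser133 detected by Eu-antibody TR-FRET (665/615 nm ratio); IC50 from 4-parameter fit against DMSO control.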

| SMILES | IC50 (Table 20) | IC50 (Table 19) |
| --- | --- | --- |
| CC[C@H]1CN(C(=O)Nc2ccc(CN3CCN(C)CC3)c(C(F)(F)F)c2)Cc2cc(Oc3ccnc4[nH]c(C#N)cc34)cnc21 [compound 20, (8S)-3-[(2-Cyano-1H-pyrrolo[2,3-b]pyridin-4-yl)oxy]-8-ethyl-N-[4-[(4-methylpiperazin-1-yl)methyl]-3-(trifluoromethyl)phenyl]-7,8-dihydro-5H-1,6-naphthyridine-6-carboxamide] | < 0.5 µM | – |
| CCN1CCN(Cc2ccc(NC(=O)N3CCc4ccc(Oc5ccnc6[nH]c(C7(O)COC7)cc56)cc4[C@@H]3C)cc2C(F)(F)F)CC1 [V-23] | – | < 0.5 µM |
| CCN1CCN(Cc2ccc(NC(=O)N3Cc4cc(Oc5ccnc6[nH]ncc56)cnc4C(C)C3)cc2C(F)(F)F)CC1 (stereo not drawn) [VII-15] | – | < 0.5 µM |
| CCN1CCN(Cc2ccc(NC(=O)N3CCc4ccc(Oc5ccnn6cccc56)cc4C3)cc2C(F)(F)F)CC1 [II-19] | – | < 0.5 µM |
| C[C@H]1CN(C(=O)Nc2cnc(CN3CCN(C)CC3)c(C(F)(F)F)c2)Cc2cc(Oc3c(F)cnc4[nH]c(-c5cnn(C)c5)cc34)ccc21 [XII-11] | < 0.5 µM | – |
| CCN1CCN(Cc2ccc(NC(=O)N3Cc4cc(Oc5ccnc6[nH]ccc56)ccc4C4(CC4)C3)cc2C(F)(F)F)CC1 [IV-23] | – | < 0.5 µM |
| C[C@H]1CN(C(=O)Nc2ccc(CN3CCN(C)CC3)c(C(F)(F)F)c2)Cc2cc(Oc3ccnc4[nH]c(C(N)=O)cc34)ccc21 [XV-31] | < 0.5 µM | – |
| CCN1CCN(Cc2ccc(NC(=O)N3CCc4cc(C#N)c(Oc5ccnc6[nH]ccc56)cc4C3C)cc2C(F)(F)F)CC1 (stereo not drawn) [IV-12] | – | 0.5 to 5 µM |
| Cc1cc2c(Oc3ccc4c(c3)CN(C(=O)Nc3cnc(OC5CCN(C)CC5)c(C(F)(F)F)c3)CC4C)ccnc2[nH]1 (single isomer, unassigned) [IV-40] | – | < 0.5 µM |
